“Also recorded” adds a separate entry of the source.

Tested on in the first test: not listed separately
Kind of test: Neural protective effect of colloid osmotic agents and Polypeptides (stated, no method given). The note with it: general statement, no experiment described.
With Dextran, the “protecting the CNS tissue (neural protective effect)” value is listed as “ineffective; also recorded: do not confer neuroprotective effect”.
The same measure, in the same setting: the same measure for Hetastarch: “ineffective”; for albumin: “effective”.
Take Collagen: the “protecting the CNS tissue (neural protective effect)” value is on record as “effective”.

A further test relates to cultured neurons.
Assay: not given
The note with it: continuous application, 100 μM; cited from earlier work.
On to `Nc1ncnc2c1ncn2[C@@H]1O[C@H](COP(=O)(O)OP(=O)(O)OP(=O)(O)O)[C@@H](O)[C@H]1O` [ATP, Adenosine 5′-triphosphate], for which the “axonal transport of membrane-bound organelles in anterograde and retrograde directions” value is recorded as “significantly increased”.
With `O=c1ccn([C@@H]2O[C@H](COP(=O)(O)OP(=O)(O)OP(=O)(O)O)[C@@H](O)[C@H]2O)c(=O)[nH]1` [Uridine 5′-triphosphate], the “axonal transport of membrane-bound organelles in anterograde and retrograde directions” value is listed as “effect similar to ATP”.

The values are drawn from patent US7387798B2, “Method and composition for resuscitation” (priority 2004, dated 2008).
